A short description of series [1]: In Vitro Mouse liver S9 Metabolic Stability Assay (Example 1D). It counts as in vitro ADME. To be noted: CD-1 mouse liver S9, 1 μM compound, 1 mg/mL S9 protein, 37° C., NADPH regenerating system, UDPGA, PAPS. The procedure:
CD-1 mouse liver S9 were purchased from Corning or XenoTech LLC or BioreclamationIVT, LLC or WuXi prepared. The cells were stored at −80° C. in a freezer before use. β-Nicotinamide adenine dinucleotide phosphate (NADP), Glucose 6-phosphate (G6P), Glucose 6-phosphate dehydrogenase from yeast (G6PDH), Uridine 5′-diphophoglucuronic acid trisodium salt (UDPGA) and Adenosine 3′-phosphate 5′-phosphosulfate lithium salt hydrate (PAPS) were available commercially from Sigma.
Compounds were diluted in DMSO to make 10 mM stock solution. 5 μL of this stock solution (10 mM, DMSO) was diluted with 45 μL DMSO and 450 μL 50% Methanol/Water to make intermediate stock solution (100 μM, 45% MeOH, 10% DMSO). 50 μL of intermediate stock solution was diluted with 450 μL 100 mM phosphate buffer to make a final stock solution (10 μM, 4.5% MeOH, 1% DMSO). 10 uL of final stock solution was added to 90 uL liver S9 system (final concentration of 1 μM, 0.45% MeOH, 0.1% DMSO).
Test compounds were incubated at 37° C. with liver S9 (pooled from multiple donors) at 1 μM in the presence of a NADPH regenerating system, UDPGA, and PAPS at 1 mg/mL S9 protein. Time samples (0 and 60 minutes) were removed and immediately mixed with cold acetonitrile containing internal standard (IS). Samples were analyzed by LC/MS/MS and disappearance of test compounds were assessed based on peak area ratios of analyte /IS (no standard curve). All samples were injected and analyzed using LC-MS/MS. The analyte/internal standard peak area ratios were converted to percentage remaining (% Remaining) with the following equation: % Remaining at 60 min=(Peak area ratio of analyte to IS at 60 min/Peak area ratio of analyte to IS at t=0)×100%. Table 5. Mouse Stability Data According to Example 1D.

In another series the target is T1, AHR (UniProt P35869).
T1 construct: IC50
T1 sequence (P35869 1-848): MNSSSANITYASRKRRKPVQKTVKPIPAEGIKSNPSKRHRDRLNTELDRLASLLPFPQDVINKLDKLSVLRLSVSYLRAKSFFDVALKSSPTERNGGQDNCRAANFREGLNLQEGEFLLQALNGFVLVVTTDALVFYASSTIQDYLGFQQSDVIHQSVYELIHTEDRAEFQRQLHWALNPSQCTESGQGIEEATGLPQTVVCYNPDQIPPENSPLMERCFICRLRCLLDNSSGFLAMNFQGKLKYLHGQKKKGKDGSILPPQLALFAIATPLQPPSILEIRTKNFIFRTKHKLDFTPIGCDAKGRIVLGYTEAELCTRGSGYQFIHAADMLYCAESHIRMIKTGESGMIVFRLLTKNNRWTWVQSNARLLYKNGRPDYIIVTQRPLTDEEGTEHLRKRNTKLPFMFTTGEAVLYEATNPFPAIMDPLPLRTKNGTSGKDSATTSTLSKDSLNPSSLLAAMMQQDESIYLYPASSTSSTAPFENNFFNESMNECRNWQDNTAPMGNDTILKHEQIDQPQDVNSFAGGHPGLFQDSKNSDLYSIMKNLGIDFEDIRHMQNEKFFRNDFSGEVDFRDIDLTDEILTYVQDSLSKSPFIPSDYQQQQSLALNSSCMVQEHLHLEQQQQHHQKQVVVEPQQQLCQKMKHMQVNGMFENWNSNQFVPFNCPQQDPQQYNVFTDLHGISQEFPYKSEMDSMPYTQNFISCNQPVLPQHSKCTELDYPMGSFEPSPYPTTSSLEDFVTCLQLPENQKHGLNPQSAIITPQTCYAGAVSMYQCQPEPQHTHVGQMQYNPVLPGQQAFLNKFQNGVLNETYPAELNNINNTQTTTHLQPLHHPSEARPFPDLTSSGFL
The series is described as follows: DRE-Luciferase Reporter Assay (Alternate Method) (Example 1B). It counts as cell-based, murine or human. To be noted: cell line and AHR activating ligand not specified. For orientation: In a reporter assay the amount or activity of a reporter protein is the signal.

The nature of series [2]: Mouse Pharmacokinetic Study (Example 1C). The class given is in vivo. To be noted: mouse, plasma, CD-1 mice; for Vd: read-out: Vdss. The procedure:
Formulations of compounds set forth in Table 4 were administered intravenously or orally via gavage to CD-1 mice. Typically, at 0.167, 0.5, 1, 2, 4, 6, 12, and 24 hours post-dose, blood was collected and processed to plasma by centrifugation and stored at −80° C. until analysis.
Internal standard was added to each sample prior to protein precipitation with acetonitrile. The precipitates were filtered through a Phree phospholipid removal filter plate and the samples were analyzed by LC/MS/MS. A standard curve was prepared in plasma from typically from 1.0 ng/mL to 3000 ng/mL and processed in the same manner as the samples. Sample analysis was typically performed on a suitable LC/MS/MS system fitted with an analytical UPLC column and compounds eluted from the analytical column with a gradient from 30-95% 0.1% formic acid (v/v) in ACN: 0.1% formic acid (v/v) in water. Mass spectrometric detection of test compound and the internal standard was performed by MRM in positive mode. The pharmacokinetics of each compound were analyzed by Phoenix WinNonlin software (Pharsight, St. Louis, Mo.) via non-compartmental analysis.

Some results are limits rather than exact numbers.

As a reminder, the IC50 is the concentration needed to halve the response being measured. Low values mean higher potency, high ones lower potency. As a reminder, the bioavailability is the share of a dose that reaches the circulation, judged against a reference dose that is usually intravenous. Read a high bioavailability as good availability. One may read the AUC(0-inf) as the area under the concentration-time curve extrapolated to infinity. In general, AUC(0-t) refers to exposure summed from dosing to a finite time, without extrapolation to infinity. A lower AUC(0-t) goes with low exposure. The term clearance denotes a measure of how efficiently the substance is removed, as volume per time. Read a high clearance as a high capacity for elimination. As usually defined, the half-life is the time needed for the level to fall by half in the phase considered. Low readings indicate rapid decline, high ones slow decline. The term Cmax denotes the peak of the concentration-time curve. In general, Tmax refers to the time from dosing to the highest level.

As for `CC(C)c1cnn2c(NCCc3c[nH]c4ccccc34)nc(-c3cncc(F)c3)nc12` [I-16, 2-(5-Fluoro-3-pyridyl)-N-[2-(1H-indol-3-yl)ethyl]-8-isopropyl-pyrazolo[1,5-a][1,3,5]triazin-4-amine], in series [1], the “Mouse S9 Stability: % Remaining After 60 Minutes” value amounted to 2%. This compound also displayed a 50% inhibitory concentration (IC50) on AHR of under 0.5 µM.
In the same order, the values of `CC(C)Oc1cc(NCCc2c[nH]c3ccccc23)nc(-c2cncc(F)c2)n1` [I-21, 2-(5-Fluoro-3-pyridyl)-N-[2-(1H-indol-3-yl)ethyl]-6-isopropoxy-pyrimidin-4-amine] are 26% and under 0.5 µM.
Take `CC(C)c1cnn2c(N[C@H](C)Cc3c[nH]c4ccccc34)cc(-c3cncc(F)c3)nc12` [I-98b]: the “Mouse S9 Stability: % Remaining After 60 Minutes” value in series [1] was 0%.
Consider `C[C@H](O)c1cnn2c(N[C@@H]3CCc4[nH]c5ccccc5c4C3)nc(-c3cncc(F)c3)nc12` [I-118], for which, in series [2] (po, 30 mg/kg), the bioavailability was 3%, the AUC(0-inf) was determined as 121 ng·h/mL, the area under the curve AUC(0-t) came to 107 ng·h/mL and the highest concentration (Cmax) was 41 ng/mL. In series [2] (po, 30 mg/kg), the Tmax was 1 h and the half-life was 1.9 h. In series [2] (iv, 3 mg/kg), this compound gave an area under the curve AUC(0-inf) of 368 ng·h/mL, an area under the curve AUC(0-t) of 364 ng·h/mL, a clearance of 136 mL/min/kg and a half-life of 0.6 h. In addition, the Vd in series [2] (iv, 3 mg/kg) came to 4.9 L/kg.
Consider `Fc1cncc(-c2nc(N[C@@H]3CCc4[nH]c5ccccc5c4C3)c3ncccc3n2)c1` [I-126, (3R)—N-[2-(5-Fluoro-3-pyridyl)pyrido[3,2-d]pyrimidin-4-yl]-2,3,4,9-tetrahydro-1H-carbazol-3-amine], for which, in series [2] (po, 30 mg/kg), the bioavailability amounted to 100%, the total exposure AUC(0-inf) was 14700 ng·h/mL, the exposure AUC(0-t) was 13700 ng·h/mL and the highest level (Cmax) was 1870 ng/mL. In series [2] (po, 30 mg/kg), the time to peak (Tmax) was 1 h and the half-life is 6.1 h. In addition, in series [2] (iv, 3 mg/kg), the AUC(0-inf) turned out to be 1650 ng·h/mL, the exposure AUC(0-t) was 1460 ng·h/mL, the clearance was 30 mL/min/kg and the half-life is 8.8 h. Further, the Vd in series [2] (iv, 3 mg/kg) was determined as 17 L/kg. Further, the IC50 at AHR was under 0.5 µM.
Turning to `CN(C)c1cnn2c(N[C@@H]3CCc4[nH]c5ccccc5c4C3)nc(-c3cncc(F)c3)nc12` [I-129, 2-(5-Fluoro-3-pyridyl)-N8,N8-dimethyl-N4-[(3R)-2,3,4,9-tetrahydro-1H-carbazol-3-yl]pyrazolo[1,5-a][1,3,5]triazine-4,8-diamine], in series [2] (po, 30 mg/kg), the bioavailability came to 53%, the AUC(0-inf) was 7530 ng·h/mL, the AUC(0-t) came to 7030 ng·h/mL and the highest level (Cmax) was 1040 ng/mL. Also, in series [2] (po, 30 mg/kg), the Tmax is 2 h and the half-life is 6.4 h. In series [2] (iv, 3 mg/kg), this compound showed an AUC(0-inf) of 1620 ng·h/mL, an area under the curve AUC(0-t) of 1340 ng·h/mL, a clearance of 31 mL/min/kg and a half-life of 14 h. For the same compound, the Vd in series [2] (iv, 3 mg/kg) is 22 L/kg. This compound showed a concentration for half-maximal inhibition (IC50) at AHR of under 0.5 µM.
For `N#Cc1cnn2c(N[C@@H]3CCc4[nH]c5ccccc5c4C3)nc(-c3cncc(F)c3)nc12` [I-130, 2-(5-Fluoro-3-pyridyl)-4-[[(3R)-2,3,4,9-tetrahydro-1H-carbazol-3-yl]amino]pyrazolo[1,5-a][1,3,5]triazine-8-carbonitrile], in series [2] (po, 30 mg/kg), the bioavailability worked out at 53%, the AUC(0-inf) was determined as 6690 ng·h/mL, the AUC(0-t) was found to be 6620 ng·h/mL and the highest concentration (Cmax) is 936 ng/mL. In series [2] (po, 30 mg/kg), the Tmax was determined as 2 h and the half-life is 3.5 h. In series [2] (iv, 3 mg/kg), this compound gave a total exposure AUC(0-inf) of 1270 ng·h/mL, an area under the curve AUC(0-t) of 1220 ng·h/mL, a clearance of 39 mL/min/kg and a half-life of 2.6 h. In addition, in series [2] (iv, 3 mg/kg), the Vd turned out to be 7.5 L/kg. Besides, the IC50 at AHR is under 0.5 µM.
In series [2] (po, 30 mg/kg), `CC(C)c1cnn2c(N[C@H]3CCc4[nH]ccc4C3)nc(-c3cncc(F)c3)nc12` [I-137a, 2-(5-fluoro-3-pyridyl)-8-isopropyl-N-[(5S)-4,5,6,7-tetrahydro-1H-indol-5-yl]pyrazolo[1,5-a][1,3,5]triazin-4-amine] showed a bioavailability of 19%, an AUC(0-inf) of 3840 ng·h/mL, an AUC(0-t) of 3780 ng·h/mL and a maximum concentration (Cmax) of 953 ng/mL. Also, in series [2] (po, 30 mg/kg), the Tmax amounted to 0.5 h and the half-life was 3.5 h. In series [2] (iv, 3 mg/kg), this compound showed an area under the curve AUC(0-inf) of 2010 ng·h/mL, an AUC(0-t) of 1920 ng·h/mL, a clearance of 25 mL/min/kg and a half-life of 8.2 h. Also, the Vd in series [2] (iv, 3 mg/kg) came to 6.6 L/kg. Further, the IC50 against AHR is under 0.5 µM.
In series [2] (po, 30 mg/kg), `CC(C)c1cnn2c(N[C@@H]3CCc4[nH]ccc4C3)nc(-c3cncc(F)c3)nc12` [I-137b, 2-(5-fluoro-3-pyridyl)-8-isopropyl-N-[(5R)-4,5,6,7-tetrahydro-1H-indol-5-yl]pyrazolo[1,5-a][1,3,5]triazin-4-amine] yielded a bioavailability of 28%, an AUC(0-inf) of 3830 ng·h/mL, an exposure AUC(0-t) of 3630 ng·h/mL and a peak concentration (Cmax) of 476 ng/mL. Further, in series [2] (po, 30 mg/kg), the time of peak concentration (Tmax) was 2 h and the half-life is 5.9 h. Also, in series [2] (iv, 3 mg/kg), the AUC(0-inf) was found to be 1350 ng·h/mL, the AUC(0-t) turned out to be 1220 ng·h/mL, the clearance was 37 mL/min/kg and the half-life is 11.2 h. For the same compound, the Vd in series [2] (iv, 3 mg/kg) came out at 16.6 L/kg. The compound further came in with a 50% inhibitory concentration (IC50) against AHR of under 0.5 µM.
Consider `Cc1cnn2c(N[C@H]3CCc4[nH]ccc4C3)nc(-c3cncc(F)c3)nc12` [I-259a, 2-(5-fluoro-3-pyridyl)-8-methyl-N-[(5S)-4,5,6,7-tetrahydro-1H-indol-5-yl]pyrazolo[1,5-a][1,3,5]triazin-4-amine], for which, in series [2] (po, 30 mg/kg), the bioavailability was 3%, the AUC(0-inf) was 249 ng·h/mL, the exposure AUC(0-t) was 237 ng·h/mL and the peak concentration (Cmax) was 82 ng/mL. Further, in series [2] (po, 30 mg/kg), the time to peak (Tmax) was 0.5 h and the half-life is 1.2 h. In series [2] (iv, 3 mg/kg), this compound showed an AUC(0-inf) of 842 ng·h/mL, an exposure AUC(0-t) of 825 ng·h/mL, a clearance of 59 mL/min/kg and a half-life of 1.2 h. The Vd in series [2] (iv, 3 mg/kg) came out at 4.7 L/kg. This compound also registered a concentration for half-maximal inhibition (IC50) at AHR of under 0.5 µM.
Compound `CON(C)C(=O)c1cnn2c(NC3CCc4[nH]c5ccccc5c4C3)nc(-c3cncc(F)c3)nc12` (centres unmarked) [I-286] showed an IC50 on AHR of under 0.5 µM.
Still for that read-out and setting: the figure for `O=C(O)c1cnn2c(NC3CCc4[nH]c5ccccc5c4C3)nc(-c3cncc(F)c3)nc12` (centres unmarked) [I-287] is over 1.5 µM; for `CN(C)C(=O)c1cnn2c(NC3CCc4[nH]c5ccccc5c4C3)nc(-c3cncc(F)c3)nc12` (centres unmarked) [I-288] it is under 0.5 µM; for `CC(C)c1cnn2c(NCCc3n[nH]c4ccccc34)nc(-c3cncc(F)c3)nc12` [I-289] it is under 0.5 µM.
